Reference: article PMC10620772, “Design, synthesis, and biological evaluation of new pyrimidine-5-carbonitrile derivatives as novel anti-cancer, dual EGFR^WT/COX-2 inhibitors with docking studies” (RSC Advances, 2023)

Experiments:
Format in all cases: cell-based, human
HCT-116 = experiment: NCI60 antitumor screening; conditions: for inhibition at 10 µM: Homo sapiens, 10 μM single dose, HCT-116 (colon cancer), read-out: growth inhibition percent (GI%)
UACC-257 = experiment: NCI60 antitumor screening; conditions: for inhibition at 10 µM: Homo sapiens, 10 μM single dose, UACC-257 (melanoma), read-out: growth inhibition percent (GI%)
OVCAR-3 = experiment: NCI60 antitumor screening; conditions: for inhibition at 10 µM: Homo sapiens, 10 μM single dose, OVCAR-3 (ovarian cancer), read-out: growth inhibition percent (GI%)
SK-OV-3 = experiment: NCI60 antitumor screening; conditions: for inhibition at 10 µM: Homo sapiens, 10 μM single dose, SK-OV-3 (ovarian cancer), read-out: growth inhibition percent (GI%)
SK-MEL-2 = experiment: NCI60 antitumor screening; conditions: for inhibition at 10 µM: Homo sapiens, 10 μM single dose, SK-MEL-2 (melanoma), read-out: growth inhibition percent (GI%)
T-47D = experiment: NCI60 antitumor screening; conditions: for inhibition at 10 µM: Homo sapiens, T47D, 10 μM single dose, T-47D (breast cancer), read-out: growth inhibition percent (GI%)
SN12C = experiment: NCI60 antitumor screening; conditions: for inhibition at 10 µM: Homo sapiens, 10 μM single dose, SN12C (renal cancer), read-out: growth inhibition percent (GI%)
HOP-92 = experiment: NCI60 antitumor screening; conditions: for inhibition at 10 µM: Homo sapiens, 10 μM single dose, HOP-92 (non-small cell lung cancer), read-out: growth inhibition percent (GI%)
BT-549 = experiment: NCI60 antitumor screening; conditions: for inhibition at 10 µM: Homo sapiens, 10 μM single dose, BT-549 (breast cancer), read-out: growth inhibition percent (GI%)
EKVX = experiment: NCI60 antitumor screening; conditions: for inhibition at 10 µM: Homo sapiens, 10 μM single dose, EKVX (non-small cell lung cancer), read-out: growth inhibition percent (GI%)
M14 = experiment: NCI60 antitumor screening; conditions: for inhibition at 10 µM: Homo sapiens, 10 μM single dose, M14 (melanoma), read-out: growth inhibition percent (GI%)
MDA-MB-231/ATCC = experiment: NCI60 antitumor screening; conditions: for inhibition at 10 µM: Homo sapiens, 10 μM single dose, MDA-MB-231/ATCC (breast cancer), read-out: growth inhibition percent (GI%)
DU-145 = experiment: NCI60 antitumor screening; conditions: for inhibition at 10 µM: Homo sapiens, DU-145, read-out: growth inhibition percent (GI%)
PC-3 = experiment: NCI60 antitumor screening; conditions: for inhibition at 10 µM: Homo sapiens, 10 μM single dose, PC-3 (prostate cancer), read-out: growth inhibition percent (GI%)
SR = experiment: NCI60 antitumor screening; conditions: for inhibition at 10 µM: Homo sapiens, 10 μM single dose, SR (leukaemia), read-out: growth inhibition percent (GI%)
SK-MEL-28 = experiment: NCI60 antitumor screening; conditions: for inhibition at 10 µM: Homo sapiens, 10 μM single dose, SK-MEL-28 (melanoma), read-out: growth inhibition percent (GI%)
MOLT-4 = experiment: NCI60 antitumor screening; conditions: for inhibition at 10 µM: Homo sapiens, 10 μM single dose, MOLT-4 (leukaemia), read-out: growth inhibition percent (GI%)
COLO 205 = experiment: NCI60 antitumor screening; conditions: for inhibition at 10 µM: Homo sapiens, 10 μM single dose, COLO 205 (colon cancer), read-out: growth inhibition percent (GI%)
KM12 = experiment: NCI60 antitumor screening; conditions: for inhibition at 10 µM: Homo sapiens, 10 μM single dose, KM12 (colon cancer), read-out: growth inhibition percent (GI%)
NCI-H23 = experiment: NCI60 antitumor screening; conditions: for inhibition at 10 µM: Homo sapiens, 10 μM single dose, NCI-H23 (non-small cell lung cancer), read-out: growth inhibition percent (GI%)
NCI60 cell lines panel = experiment: NCI60 antitumor screening, full panel; conditions: for One-dose activity over the NCI60 panel: 10 μM; for inhibition at 10 µM: Homo sapiens, 10 μM single dose, mean over NCI60 cell lines, read-out: Mean growth inhibition percent (GI%)
In short: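 Single-concentration screen at 10 μM across the NCI60 panel (leukaemia, NSCLC, colon, CNS, melanoma, ovarian, renal, prostate, breast). Results are expressed as percent growth inhibition (GI%) of treated lines.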

HS 578T = experiment: NCI60 antitumor screening; conditions: for GI%: 10 μM one-dose; for inhibition at 10 µM: Homo sapiens, 10 μM single dose, HS 578T (breast cancer), read-out: growth inhibition percent (GI%)
SF-295 = experiment: NCI60 antitumor screening; conditions: for inhibition at 10 µM: Homo sapiens, 10 μM single dose, SF-295 (CNS cancer), read-out: growth inhibition percent (GI%)

Compound: Cc1ccc(CSc2nc(-c3ccc(F)cc3)c(C#N)c(N3CCOCC3)n2)cc1 [4d, 4-(4-Fluorophenyl)-2-((4-methylbenzyl)thio)-6-morpholinopyrimidine-5-carbonitrile]
- GI% (HCT-116; 10 μM one-dose): 19.81%
- GI% (UACC-257; 10 μM one-dose): 17.42%
- GI% (OVCAR-3; 10 μM one-dose): — (GI% < 10)
- GI% (SK-OV-3; 10 μM one-dose): 11.69%
- GI% (SK-MEL-2; 10 μM one-dose): — (GI% < 10)
- GI% (T-47D; 10 μM one-dose): 12.46%
- GI% (SN12C; 10 μM one-dose): — (GI% < 10)
- GI% (HOP-92; 10 μM one-dose): 34.62%
- GI% (BT-549; 10 μM one-dose): 11.94%
- GI% (EKVX; 10 μM one-dose): 13.10%
- GI% (M14; 10 μM one-dose): — (GI% < 10)
- GI% (MDA-MB-231/ATCC; 10 μM one-dose): 31.92%
- GI% (DU-145; 10 μM one-dose): — (GI% < 10)
- GI% (PC-3; 10 μM one-dose): — (GI% < 10)
- GI% (SR; 10 μM one-dose, Table 1): — (GI value > 70%)
- GI% (SK-MEL-28; 10 μM one-dose): — (GI% < 10)
- GI% (MOLT-4; 10 μM one-dose): — (GI% < 10)
- GI% (COLO 205; 10 μM one-dose): — (GI% < 10)
- GI% (KM12; 10 μM one-dose): — (GI% < 10)
- GI% (NCI-H23; 10 μM one-dose): — (GI% < 10)
- Mean GI% (NCI60 cell lines panel; 10 μM one-dose, mean over NCI60): 14.01%
- GI% (HS 578T): 48.85%
- GI% (HS 578T; Table 1): — (GI value > 70%)
- GI% (SF-295; 10 μM one-dose): 32.25%

Compound: N#Cc1c(-c2ccc(F)cc2)nc(SCc2ccc([N+](=O)[O-])cc2)nc1N1CCNCC1 [4g, 4-(4-Fluorophenyl)-2-((4-nitrobenzyl)thio)-6-(piperazin-1-yl) pyrimidine-5-carbonitrile]
- inhibition at 10 µM (HCT-116): < 10%
- inhibition at 10 µM (UACC-257): < 10%
- inhibition at 10 µM (OVCAR-3): < 10%
- inhibition at 10 µM (SK-OV-3): < 10%
- inhibition at 10 µM (SK-MEL-2): < 10%
- inhibition at 10 µM (T-47D): < 10%
- inhibition at 10 µM (SN12C): < 10%
- inhibition at 10 µM (HOP-92): < 10%
- inhibition at 10 µM (BT-549): < 10%
- inhibition at 10 µM (EKVX): < 10%
- inhibition at 10 µM (M14): < 10%
- inhibition at 10 µM (MDA-MB-231/ATCC): < 10%
- inhibition at 10 µM (DU-145): < 10%
- inhibition at 10 µM (PC-3): < 10%
- inhibition at 10 µM (SR): < 10%
- inhibition at 10 µM (SK-MEL-28): < 10%
- inhibition at 10 µM (MOLT-4): < 10%
- inhibition at 10 µM (COLO 205): < 10%
- inhibition at 10 µM (KM12): < 10%
- inhibition at 10 µM (NCI-H23): < 10%
- One-dose activity over the NCI60 panel (NCI60 cell lines panel): inactive
- inhibition at 10 µM (NCI60 cell lines panel): < 10%
- inhibition at 10 µM (HS 578T): < 10%
- inhibition at 10 µM (SF-295): < 10%

Compound: Cc1ccc(CSc2nc(-c3ccc(F)cc3)c(C#N)c(N3CCNCC3)n2)cc1 [4h, 4-(4-Fluorophenyl)-2-((4-methylbenzyl)thio)-6-(piperazin-1-yl)pyrimidine-5-carbonitrile]
- inhibition at 10 µM (HCT-116): < 10%
- inhibition at 10 µM (UACC-257): < 10%
- inhibition at 10 µM (OVCAR-3): < 10%
- inhibition at 10 µM (SK-OV-3): < 10%
- inhibition at 10 µM (SK-MEL-2): < 10%
- inhibition at 10 µM (T-47D): < 10%
- inhibition at 10 µM (SN12C): < 10%
- inhibition at 10 µM (HOP-92): < 10%
- inhibition at 10 µM (BT-549): < 10%
- inhibition at 10 µM (EKVX): < 10%
- inhibition at 10 µM (M14): < 10%
- inhibition at 10 µM (MDA-MB-231/ATCC): < 10%
- inhibition at 10 µM (DU-145): < 10%
- inhibition at 10 µM (PC-3): < 10%
- inhibition at 10 µM (SR): < 10%
- inhibition at 10 µM (SK-MEL-28): < 10%
- inhibition at 10 µM (MOLT-4): < 10%
- inhibition at 10 µM (COLO 205): < 10%
- inhibition at 10 µM (KM12): < 10%
- inhibition at 10 µM (NCI-H23): < 10%
- One-dose activity over the NCI60 panel (NCI60 cell lines panel): inactive
- inhibition at 10 µM (NCI60 cell lines panel): < 10%
- inhibition at 10 µM (HS 578T): 10.1%
- inhibition at 10 µM (SF-295): < 10%
